The nature of series [1]: Activity recovery from vial (gamma-counting of aliquots). It is filed as physicochemical. The following applies: for added ^89Zr activity recoverable: formulation with 5% EtOH. The method, then:
FIG. 9. Recovery of ^89Zr-oxine complexes from the reaction vial over time. The figure compares formulations containing 8-hydroxyquinoline, HEPES and NaOH only (dots), and additional 5% EtOH (squares) or 1 mg/mL polysorbate 80 (diamonds). ^89Zr-oxalate was added to 100 µL of the formulation of the invention in a glass vial and left at room temperature for up to 1 week. 10 µL aliquots were removed from the glass vial immediately after addition (0 min) and after 15 min, 30 min, 1, 2, 24, 48, 72 and 168 h, then gamma-counted at the end of the experiment. The recovered activity is expressed as the activity in the aliquot at the indicated time as a percentage of the activity sampled immediately after addition of ^89Zr to the-formulation of the invention. Mean±SD, N=3.
FIG. 10. Recovery of ^89Zr-oxine complexes from the reaction vial over time as a function of the amount of polysorbate 80. […] 10 µL aliquots were removed from the glass vial immediately after addition (0 min) and after 15 min, 30 min, 1, 2, 24, 48, 72 and 168 h, then gamma-counted at the end of the experiment. The recovered activity is expressed as the activity in the aliquot at the indicated time as a percentage of the activity sampled immediately after addition of ^89Zr to the formulation of the invention. […]
The stability of the compositions described herein can be assessed, for example, in terms of their recovered activity. The recovered activity is expressed as the percentage of activity (i.e. radioactivity, as assessed by gamma-counting) in a sample at the time of measurement, relative to the activity sampled immediately after addition of the radioactive metal containing solution to the oxine formulation described herein. […]
Activity recovery from vial: ^89Zr was added to 100 µL of the formulation. […] The aliquots were gamma-counted on day 7 after addition of ^89Zr. The percentage of activity recovered from the vial was determined as the counts in each sample divided by the counts in the reference sample.

Series [2] deals with Extracellular vesicles. Briefly: Radiolabelling efficiency of extracellular vesicles. Particulars: EVs from B16-F10.GFP, MDA-MB-231.CD63-GFP, PANC1, 4T1 and 2D/3D MSC cultures. Here is the method: FIG. 23. Use of the kit formulation to radiolabel extracellular vesicles (EVs) for imaging purposes.
Extracellular vesicles are isolated by any suitable method (e.g. by density gradient centrifugation). Extracellular vesicles (e.g. 1×10^10 to 1×10^11 vesicles) in 160 µL PBS were incubated with 20 µL ^89Zr-oxine or unchelated ^89Zr for 20 min at 37° C. with frequent shaking, followed by addition of 100 µL 1% deferoxamine in PBS to trap any unbound ^89Zr. Radiolabelled EVs were purified from unchelated radiotracer by size-exclusion chromatography (SEC) using cross-linked agarose resin (e.g. Sepharose CL-2B, GE Healthcare) in plastic columns. The reaction mixture was loaded onto the column followed by 200 µL PBS and eluted with 700-800 µL PBS. Radioactivity of the eluate and the column was measured using gamma counting to calculate labelling efficiency. The labelling efficiency of EVs obtained from B16-F10.GFP, MDA-MB-231.CD63-GFP, PANC1 and 4T1 cell lines and from 2D and 3D cultures of mesenchymal stem cells (MSC) B with ^89Zr-oxine ranged from 5.4 ± 3.2% for 2D-culture derived MSC-EVs to 27.6 ± 6.5% for 4T1 EVs (FIG. 23).

Series [3] concerns WBC populations. Briefly: Relative activity per cell in FACS-sorted WBC populations, gamma-counted. It counts as cell-based, human. The following applies: flow-assisted cell sorting. The method, then:
FIG. 18. Relative activity per cell of ^89Zr in WBC populations after labelling of mixed WBC with ^89Zr-oxine. Radiolabelled WBC were sorted by FACS and gamma-counted. Each point represents cells from an individual donor.
To determine whether certain subtypes of WBC had preferential uptake of ^89Zr-oxine, radiolabelled WBC were stained with fluorescent monoclonal antibodies, automatically sorted and gamma-counted. ^89Zr-radiolabelled WBC were stained (15 min at 4° C.) with a combination of CD45-APC-Vio770 (#130-110-773), CD3-PE (REA613, #130-113-701), CD14-APC (#130-110-578), CD19-PE-Vio770 (REA675, #130-114-173) and CD16-FITC (REA423, #130-113-954) antibodies to sort samples into neutrophils, eosinophils, monocytes, T cells and B cells, or CD45-APC-Vio770, […] (REA175, #130-117-800) and CD41a-PE (REA386, #130-121-429) to sort red blood cells and platelets. Compensation settings were adjusted using beads (anti-REA MACS® Comp, #130-104-693). Samples were analysed and sorted on a FACSMelody instrument (BD Biosciences) equipped with blue (488 nm), yellow-green ([…]) and red (633 nm) lasers. For each cell type, a fixed number of events was collected, and the fractions were gamma-counted to determine the amount of activity per cell.

For series [4], the system named is WBCs. As to the kind of experiment: In vitro chemotaxis assay of radiolabelled WBC towards fMLP. It is filed as cell-based, human. The following applies: vs ^111In-oxine and unlabelled control cells. Here is the method: FIG. 17. Chemotaxis of radiolabelled WBC. Cells were incubated with ^89Zr-oxine, ^111In-oxine, or vehicle only. The chemotaxis index is the number of cells migrating towards 10 nM fMLP divided by the number of cells migrating towards vehicle, averaged from triplicates for each sample. Each point represents one donor. Bars represent the mean ± SD of n = 9, 10 and 10 individual samples. p≥0.05.
The functionality of WBCs radiolabelled as in Example 8 was tested using an in vitro chemotaxis assay, where the number of WBCs migrating in response to the neutrophil chemoattractant N-formyl-Met-Leu-Phe (fMLP) was measured.
After radiolabelling, red blood cells (RBCs) were removed from the cell pellets hypotonic lysis. Cells were resuspended in 4.5 mL cold H2O for 30 s, after which isotonicity was restored by addition of 0.5 mL 10x PBS. Lysed RBC were removed by centrifugation and the remaining WBC were resuspended in assay medium at 3.5×10^6 cells/mL. […] The top wells were emptied, the plate was centrifuged at 150 g for 5 min to detach the cells from the membrane and the cells in the bottom wells were counted using a haemocytometer. The chemotaxis index (CI) was calculated by dividing the number of WBC in the wells containing fMLP by the number of WBC in the wells containing medium only.

Series [5] relates to WBC. Briefly: Viability of radiolabelled cells, Trypan Blue dye exclusion. It counts as cell-based, human. Here is the method:
FIG. 16. WBC radiolabelling with ^89Zr-oxine and ^111In-oxine. Percentage of viable ^89Zr- and ^111n-labelled WBC after 4 h and 24 h, measured using the Trypan blue assay. Mean ± SD of n=6 per group, Student’s two-tailed paired t-test. ns: not significant (p≥0.05).
Viability was assessed by microscopy using the Trypan Blue dye exclusion method. Cell viability after radiolabelling with ^89Zr-oxine was 99.4±0.3% immediately after labelling, 97.0±2.3% after 4 h and 92.6±4.8% after 24 h (FIG. 16).

Series [6] has as its system eosinophils. The following applies: ref. [31]; cited from earlier work.
Series [7] concerns Human WBCs. Briefly: Radiolabel retention in radiolabelled WBC in autologous cell free plasma. Particulars: p>0.05, n=10. It is filed as cell-based. The method, then:
Human WBCs from 10 healthy donors were radiolabelled with ^89Zr-oxine and ^111In-oxine as described in Example 8 and an intra-individual comparison of labelling with ^89Zr-oxine and ^111In-oxine was performed. Labelling efficiency was determined as described in Example 7. For radiolabel retention studies, radiolabelled WBC were suspended in autologous CFP (cell free plasma), in triplicate in a 24-well plate and incubated at 37° C. Cells were collected after 4 h or 24 h, diluted with PBS, centrifuged at 200 g for 10 min, and supernatants and pellets were measured in a dose calibrator to determine retention using the same formula as for labelling efficiency. The labelling efficiency of WBCs with ^89Zr-oxine was 48.7±6.3%, vs 89.1±9.5 (p<0.0001, n=10) for ^111In-oxine (FIG. 14). Cellular retention of ^89Zr was 91.4±1.4% after 4 h incubation in autologous CFP and 86.6±2.9% after 24 h (FIG. 15). […] The labelling of WBC with ^89Zr-oxine was reliable, consistently achieving 45-50% labelling efficiency with 160-480 million cells.

Molecules are shown by their SMILES.

Consider `c1cnc2c([O][89Zr]([O]c3cccc4cccnc34)([O]c3cccc4cccnc34)[O]c3cccc4cccnc34)cccc2c1` [^89Zr-oxine], for which the “added activity recoverable from the vial” value in series [1] (1 M HEPES buffer (pH 7.9), no surfactant or organic solvent, glass vessel, 15 min after addition of ^89Zr) stood at 46%. Besides, the “added ^89Zr activity recoverable” value is 46% in series [1] (after 1 h) and “less than 6%” in series [1] (after 24 h). Besides, the “labelling efficiency of EVs compared to unchelated ^89Zr” value in series [2] is listed as “higher labelling efficiency”. Moreover, in series [3], the “preferential uptake by leukocyte populations” value is “no preferential uptake by any specific leukocyte population”. Further, in series [3], the “uptake in RBCs and platelets” value is “significant uptake”. Besides, in series [4], the “chemotactic properties of labelled WBC” value was “retained their chemotactic properties”. In addition, the results for the “cell viability after radiolabelling” value in series [5] (after 4 h), in series [5] (after 24 h) and in series [5] (immediately after labelling) were 97.0±2.3%, 92.6±4.8% and 99.4±0.3%, respectively.

With `C/C(=N\[O-])[C@@H](C)[N-]CC(C)(C)C[N-][C@H](C)/C(C)=N/O.[O]=[99Tc+3]` (racemic) [^99mTc-HMPAO], the “preferential accumulation in leucocyte subtype” value in series [6] is recorded as “accumulated preferentially in eosinophils”.

For the molecule `c1cnc2c([O][111In]([O]c3cccc4cccnc34)[O]c3cccc4cccnc34)cccc2c1` [^111In-oxine, reference compound], the “radiolabelling agent retention compared with ^89Zr-oxine” value in series [7] is reported as “no significant differences”. Also, the “viability compared with ^89Zr-oxine” value in series [5] (p>0.05, n=6-10) was “no significant differences”.
